Publication PMC2885673, “Interaction of triosephosphate isomerase from the cell surface of Staphylococcus aureus and α-(1→3)-mannooligosaccharides derived from glucuronoxylomannan of Cryptococcus neoformans” (Microbiology, 2009)

What was measured:
[1] = biological target: T1, triosephosphate isomerase (TPI) from S. aureus (Staphylococcus aureus, UniProt Q2G030); assay: SPR (Biacore […]), TPI immobilized, heterogeneous ligand-parallel reaction fit; format: binding; details: HBS-EP pH 7.4, 150 mM NaCl, 3 mM EDTA; second site of a two-site fit (stronger site)
T1 construct: gene tpiA; native, purified from LiCl surface protein extract; 253 amino acids (homology model); amine-coupled to CM5 chip for SPR
T1 sequence (Q2G030 whole entry): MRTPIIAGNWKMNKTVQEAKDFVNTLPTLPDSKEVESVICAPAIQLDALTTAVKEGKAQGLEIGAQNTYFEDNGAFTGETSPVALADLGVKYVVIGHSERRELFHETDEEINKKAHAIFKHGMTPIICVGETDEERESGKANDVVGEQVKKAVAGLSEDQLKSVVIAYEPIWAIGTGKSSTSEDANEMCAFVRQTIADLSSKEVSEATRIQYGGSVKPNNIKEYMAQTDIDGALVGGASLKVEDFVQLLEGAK

[2] = biological target: T1, triosephosphate isomerase (TPI) from S. aureus; assay: coupled NADH / glycerol-3-phosphate dehydrogenase assay, A340; format: biochemical; details: 0.45 mM DL-glyceraldehyde 3-phosphate; S. aureus surface protein extract per the assay description

OC[C@H]1O[C@H](O[C@@H]2[C@H](O)[C@@H](O[C@@H]3[C@H](O)[C@@H](O[C@H]4[C@H](O)[C@@H](CO)OC(O)[C@H]4O)O[C@H](CO)[C@H]3O)O[C@H](CO)[C@H]2O)[C@@H](O)[C@@H](O)[C@@H]1O (stereo partly shown) [M4, mannotetraose]
Heterogeneous ligand-parallel reaction / Kd2 [1]: 0.0146 µM
inhibition of TPI activity at 100 μM [2]: dose-dependent inhibition was observed with mannotriose, mannotetraose and mannopentaose

OC[C@H]1O[C@H](O[C@@H]2[C@H](O)[C@@H](O[C@@H]3[C@H](O)[C@@H](O[C@@H]4[C@H](O)[C@@H](O[C@H]5[C@H](O)[C@@H](CO)OC(O)[C@H]5O)O[C@H](CO)[C@H]4O)O[C@H](CO)[C@H]3O)O[C@H](CO)[C@H]2O)[C@@H](O)[C@@H](O)[C@@H]1O (stereo partly shown) [M5, mannopentaose]
Heterogeneous ligand-parallel reaction / Kd2 [1]: 18.6 µM
inhibition of TPI activity at 100 μM [2]: dose-dependent inhibition was observed with mannotriose, mannotetraose and mannopentaose

OC[C@H]1O[C@H](O[C@@H]2[C@H](O)[C@@H](O[C@H]3[C@H](O)[C@@H](CO)OC(O)[C@H]3O)O[C@H](CO)[C@H]2O)[C@@H](O)[C@@H](O)[C@@H]1O (stereo partly shown) [M3, mannotriose]
Heterogeneous ligand-parallel reaction / Kd2 [1]: 124 µM
inhibition of TPI activity at 100 μM [2]: dose-dependent inhibition was observed with mannotriose, mannotetraose and mannopentaose

OC[C@H]1O[C@H](O[C@H]2[C@H](O)[C@@H](CO)OC(O)[C@H]2O)[C@@H](O)[C@@H](O)[C@@H]1O (stereo partly shown) [M2, mannobiose]
Heterogeneous ligand-parallel reaction / Kd2 [1]: 5.37 µM
